Among the data in patent US12139492B2 (Endotarget Inc., priority 2021, dated 2024) are IC50, Dmax and DC50 values, retold here.

What is called Dmax is the largest share of the target that was removed. Lower therefore signals a partial loss of target. What is called DC50 is the midpoint of the concentration-degradation curve. Lower therefore signals degradation at low concentration.

The test system of assay [1] is Mino cells. The assay can be described thus: Antiproliferative effect, MTS cell viability assay, Mino cells. The assay is classed as cell-based. The settings on record: Homo sapiens, MINO, Mino mantle cell lymphoma cells; read-out: IC50 (anti-proliferation) Mino cells. In a few lines: (§1)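 Absorbance at 490 nm of formazan, formed by metabolically active cells from MTS tetrazolium, served as the viability measure after a 72 h treatment across a 0.001–10 μM concentration series plus untreated control.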

In assay [2] the test system is JeKo-1 cells. Briefly: Antiproliferative effect, MTS cell viability assay, JeKo-1 cells. The assay is classed as cell-based. The conditions noted are these: Homo sapiens; JeKo-1 mantle cell lymphoma cells; read-out: IC50 (anti-proliferation) JeKO-1 cells. In a few lines: as §1
For orientation: Formazan colour is commonly taken as a measure of viable cells.

The target in assay [3] is BTK (Homo sapiens, UniProt Q06187). The assay can be described thus: Degradation of BTK protein in Namalwa cells (Western blot; DC50, Dmax). The conditions noted are these: for DC50: BTK degradation, cell line not given.
Chain of BTK (Q06187 whole entry): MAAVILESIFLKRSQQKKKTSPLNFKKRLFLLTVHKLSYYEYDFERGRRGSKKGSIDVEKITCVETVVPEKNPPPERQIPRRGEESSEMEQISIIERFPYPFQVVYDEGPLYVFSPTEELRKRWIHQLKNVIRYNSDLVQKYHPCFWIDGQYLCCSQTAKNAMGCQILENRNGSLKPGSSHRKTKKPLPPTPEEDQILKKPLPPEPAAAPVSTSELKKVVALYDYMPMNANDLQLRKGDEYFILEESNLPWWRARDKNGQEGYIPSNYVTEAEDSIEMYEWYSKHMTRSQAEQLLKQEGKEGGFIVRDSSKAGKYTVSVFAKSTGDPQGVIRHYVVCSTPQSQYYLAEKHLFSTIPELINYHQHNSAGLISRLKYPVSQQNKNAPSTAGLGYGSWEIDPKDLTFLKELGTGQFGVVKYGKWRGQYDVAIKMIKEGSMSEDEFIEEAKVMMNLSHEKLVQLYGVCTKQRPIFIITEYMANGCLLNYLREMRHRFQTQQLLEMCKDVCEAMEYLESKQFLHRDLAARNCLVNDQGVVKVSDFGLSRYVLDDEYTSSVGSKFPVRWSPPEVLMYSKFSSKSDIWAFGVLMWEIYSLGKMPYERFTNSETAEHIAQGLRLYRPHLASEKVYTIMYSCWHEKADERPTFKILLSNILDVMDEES

On to `NC(=O)c1c(-c2ccc(Oc3ccccc3)cc2)nn2c1NCCC2C1CCN(C2CCN(CCN3CCC(c4ccc5c(c4)CN(C4CCC(=O)NC4=O)C5=O)CC3)CC2)CC1` (stereo not drawn) [Compound 312, 7-(1′-(2-(4-(2-(2,6-dioxopiperidin-3-yl)-1-oxoisoindolin-5-yl)piperidin-1-yl)ethyl)-[1,4′-bipiperidin]-4-yl)-2-(4-phenoxyphenyl)-4,5,6,7-tetrahydropyrazolo[1,5-a]pyrimidine-3-carboxamide], for which the IC50 in assay [1] and in assay [2] was greater than 10 µM in each case. The Dmax in assay [3] was greater than 75%. Besides, the DC50 in assay [3] is greater than 0.05 µM.

Consider `NC(=O)c1c(-c2ccc(Oc3ccccc3)cc2)nn2c1NCCC2C1CCN(CC2CCN(CC3CCN(c4ccc5c(c4)C(=O)N(C4CCC(=O)NC4=O)C5=O)CC3)CC2)CC1` (stereo not drawn) [Compound 313, 7-(1-((1-((1-(2-(2,6-dioxopiperidin-3-yl)-1,3-dioxoisoindolin-5-yl)piperidin-4-yl)methyl)piperidin-4-yl)methyl)piperidin-4-yl)-2-(4-phenoxyphenyl)-4,5,6,7-tetrahydropyrazolo[1,5-a]pyrimidine-3-carboxamide], for which the IC50 in assay [1] was in the range of 1 to 10 µM. For the same compound, the IC50 in assay [2] was in the range of 1 to 10 µM. For the same compound, in assay [3], the Dmax was greater than 90% and the DC50 was 0.01 to 0.05 µM.

With `NC(=O)c1c(-c2ccc(Oc3ccccc3)cc2)nn2c1NCCC2C1CCN(CC2CCN(CC3CCN(c4ccc5c(c4)CN(C4CCC(=O)NC4=O)C5=O)CC3)CC2)CC1` (stereo not drawn) [Compound 314, 7-(1-((1-((1-(2-(2,6-dioxopiperidin-3-yl)-1-oxoisoindolin-5-yl)piperidin-4-yl)methyl)piperidin-4-yl)methyl)piperidin-4-yl)-2-(4-phenoxyphenyl)-4,5,6,7-tetrahydropyrazolo[1,5-a]pyrimidine-3-carboxamide], the IC50 in assay [1] and in assay [2] was 1 to 10 µM each time. In assay [3], this compound yielded a Dmax greater than 90%. This compound also yielded a DC50 in assay [3] of 0.01 to 0.05 µM.

For the compound `NC(=O)c1c(-c2ccc(Oc3ccccc3)cc2)nn2c1NCCC2C1CCN(CC2CCN(CCN3CCN(c4ccc5c(c4)C(=O)N(C4CCC(=O)NC4=O)C5=O)CC3)CC2)CC1` (stereo not drawn) [Compound 315, 7-(1-((1-(2-(4-(2-(2,6-dioxopiperidin-3-yl)-1,3-dioxoisoindolin-5-yl)piperazin-1-yl)ethyl)piperidin-4-yl)methyl)piperidin-4-yl)-2-(4-phenoxyphenyl)-4,5,6,7-tetrahydropyrazolo[1,5-a]pyrimidine-3-carboxamide], in assay [1], the IC50 lay in the range of 1 to 10 µM. The IC50 in assay [2] fell in the range of 1 to 10 µM. In assay [3], the Dmax was greater than 75% and the DC50 was greater than 0.05 µM.

Regarding `NC(=O)c1c(-c2ccc(Oc3ccccc3)cc2)nn2c1NCCC2C1CCN(CC2CCN(CCN3CCN(c4ccc5c(c4)CN(C4CCC(=O)NC4=O)C5=O)CC3)CC2)CC1` (stereo not drawn) [Compound 316, 7-(1-((1-(2-(4-(2-(2,6-dioxopiperidin-3-yl)-1-oxoisoindolin-5-yl)piperazin-1-yl)ethyl)piperidin-4-yl)methyl)piperidin-4-yl)-2-(4-phenoxyphenyl)-4,5,6,7-tetrahydropyrazolo[1,5-a]pyrimidine-3-carboxamide], the IC50 in assay [1] was 1 to 10 µM. For the same compound, the IC50 in assay [2] is 1 to 10 µM. Besides, in assay [3], the Dmax was greater than 75% and the DC50 was 0.01 to 0.05 µM.

For `NC(=O)c1c(-c2ccc(Oc3ccccc3)cc2)nn2c1NCCC2C1CCN(CC2CCN(CCC3CCN(c4ccc5c(c4)C(=O)N(C4CCC(=O)NC4=O)C5=O)CC3)CC2)CC1` (stereo not drawn) [Compound 317, 7-(1-((1-(2-(1-(2-(2,6-dioxopiperidin-3-yl)-1,3-dioxoisoindolin-5-yl)piperidin-4-yl)ethyl)piperidin-4-yl)methyl)piperidin-4-yl)-2-(4-phenoxyphenyl)-4,5,6,7-tetrahydropyrazolo[1,5-a]pyrimidine-3-carboxamide], the IC50 in assay [1] is 1 to 10 µM; in assay [2], greater than 10 µM. In addition, in assay [3], the Dmax is greater than 75%. In assay [3], this compound yielded a DC50 greater than 0.05 µM.

`NC(=O)c1c(-c2ccc(Oc3ccccc3)cc2)nn2c1NCCC2C1CCN(CC2CCN(CCC3CCN(c4ccc5c(c4)CN(C4CCC(=O)NC4=O)C5=O)CC3)CC2)CC1` (stereo not drawn) [Compound 318, 7-(1-((1-(2-(1-(2-(2,6-dioxopiperidin-3-yl)-1-oxoisoindolin-5-yl)piperidin-4-yl)ethyl)piperidin-4-yl)methyl)piperidin-4-yl)-2-(4-phenoxyphenyl)-4,5,6,7-tetrahydropyrazolo[1,5-a]pyrimidine-3-carboxamide]: the IC50 in assay [1] was 1 to 10 µM; in assay [2], greater than 10 µM. This compound also showed a maximal degradation (Dmax) in assay [3] greater than 75%. Moreover, the DC50 in assay [3] is greater than 0.05 µM.

`NC(=O)c1c(-c2ccc(Oc3ccccc3)cc2)nn2c1NCCC2C1CCN(CC2CCN(CCN3CCC(c4ccc5c(c4)C(=O)N(C4CCC(=O)NC4=O)C5=O)CC3)CC2)CC1` (stereo not drawn) [Compound 319, 7-(1-((1-(2-(4-(2-(2,6-dioxopiperidin-3-yl)-1,3-dioxoisoindolin-5-yl)piperidin-1-yl)ethyl)piperidin-4-yl)methyl)piperidin-4-yl)-2-(4-phenoxyphenyl)-4,5,6,7-tetrahydropyrazolo[1,5-a]pyrimidine-3-carboxamide]: the IC50 in assay [1] lay within 1 to 10 µM. Further, the IC50 in assay [2] was greater than 10 µM. Also, in assay [3], the Dmax is greater than 75% and the DC50 lay within 0.01 to 0.05 µM.

In the case of `NC(=O)c1c(-c2ccc(Oc3ccccc3)cc2)nn2c1NCCC2C1CCN(CC2CCN(CCN3CCC(c4ccc5c(c4)CN(C4CCC(=O)NC4=O)C5=O)CC3)CC2)CC1` (stereo not drawn) [Compound 320, 7-(1-((1-(2-(4-(2-(2,6-dioxopiperidin-3-yl)-1-oxoisoindolin-5-yl)piperidin-1-yl)ethyl)piperidin-4-yl)methyl)piperidin-4-yl)-2-(4-phenoxyphenyl)-4,5,6,7-tetrahydropyrazolo[1,5-a]pyrimidine-3-carboxamide], the IC50 in assay [1] was in the range of 1 to 10 µM. Besides, the IC50 in assay [2] is 1 to 10 µM. In assay [3], this compound gave a Dmax greater than 90% and a DC50 of 0.01 to 0.05 µM.

As to `NC(=O)c1c(-c2ccc(Oc3ccccc3)cc2)nn2c1NCC[C@H]2C1CCN(C2CCN(CC3CCN(c4ccc5c(c4)C(=O)N(C4CCC(=O)NC4=O)C5=O)CC3)CC2)CC1` (stereo partly drawn) [Compound 321, (7S)-7-(1′-((1-(2-(2,6-dioxopiperidin-3-yl)-1,3-dioxoisoindolin-5-yl)piperidin-4-yl)methyl)-[1,4′-bipiperidin]-4-yl)-2-(4-phenoxyphenyl)-4,5,6,7-tetrahydropyrazolo[1,5-a]pyrimidine-3-carboxamide], the IC50 in assay [1] and in assay [2] was greater than 10 µM throughout. The Dmax in assay [3] is greater than 75%. In addition, the DC50 in assay [3] lay within 0.01 to 0.05 µM.

As for `NC(=O)c1c(-c2ccc(Oc3ccccc3)cc2)nn2c1NCC[C@H]2C1CCN(C2CCN(CC3CCN(c4ccc5c(c4)CN(C4CCC(=O)NC4=O)C5=O)CC3)CC2)CC1` (stereo partly drawn) [Compound 322, (7S)-7-(1′-((1-(2-(2,6-dioxopiperidin-3-yl)-1-oxoisoindolin-5-yl)piperidin-4-yl)methyl)-[1,4′-bipiperidin]-4-yl)-2-(4-phenoxyphenyl)-4,5,6,7-tetrahydropyrazolo[1,5-a]pyrimidine-3-carboxamide], the IC50 in assay [1] is 1 to 10 µM. Further, in assay [2], the IC50 lay within 1 to 10 µM. In addition, in assay [3], the Dmax is greater than 90% and the DC50 is 0.01 to 0.05 µM.

Regarding `NC(=O)c1c(-c2ccc(Oc3ccccc3)cc2)nn2c1NCC[C@H]2C1CCN(C2CCN(CCN3CCN(c4ccc5c(c4)C(=O)N(C4CCC(=O)NC4=O)C5=O)CC3)CC2)CC1` (stereo partly drawn) [Compound 323, (7S)-7-(1′-(2-(4-(2-(2,6-dioxopiperidin-3-yl)-1,3-dioxoisoindolin-5-yl)piperazin-1-yl)ethyl)-[1,4′-bipiperidin]-4-yl)-2-(4-phenoxyphenyl)-4,5,6,7-tetrahydropyrazolo[1,5-a]pyrimidine-3-carboxamide], the IC50 in assay [1] is 1 to 10 µM. In addition, in assay [2], the IC50 was in the range of 1 to 10 µM. In assay [3], this compound came in with a Dmax greater than 75% and a DC50 of 0.01 to 0.05 µM.

With `NC(=O)c1c(-c2ccc(Oc3ccccc3)cc2)nn2c1NCC[C@H]2C1CCN(C2CCN(CCN3CCN(c4ccc5c(c4)CN(C4CCC(=O)NC4=O)C5=O)CC3)CC2)CC1` (stereo partly drawn) [Compound 324, (7S)-7-(1′-(2-(4-(2-(2,6-dioxopiperidin-3-yl)-1-oxoisoindolin-5-yl)piperazin-1-yl)ethyl)-[1,4′-bipiperidin]-4-yl)-2-(4-phenoxyphenyl)-4,5,6,7-tetrahydropyrazolo[1,5-a]pyrimidine-3-carboxamide], the IC50 in assay [1] and in assay [2] was 1 to 10 µM in each case. In assay [3], this compound yielded a Dmax greater than 75%. The compound also showed a DC50 in assay [3] greater than 0.05 µM.

Turning to `NC(=O)c1c(-c2ccc(Oc3ccccc3)cc2)nn2c1NCC[C@H]2C1CCN(C2CCN(CCC3CCN(c4ccc5c(c4)C(=O)N(C4CCC(=O)NC4=O)C5=O)CC3)CC2)CC1` (stereo partly drawn) [Compound 325], the IC50 in assay [1] was 1 to 10 µM. Further, the IC50 in assay [2] was in the range of 1 to 10 µM. In assay [3], this compound returned a Dmax greater than 90% and a DC50 of 0.01 to 0.05 µM.

On to `NC(=O)c1c(-c2ccc(Oc3ccccc3)cc2)nn2c1NCC[C@H]2C1CCN(C2CCN(CCC3CCN(c4ccc5c(c4)CN(C4CCC(=O)NC4=O)C5=O)CC3)CC2)CC1` (stereo partly drawn) [Compound 326, (7S)-7-(1′-(2-(1-(2-(2,6-dioxopiperidin-3-yl)-1-oxoisoindolin-5-yl)piperidin-4-yl)ethyl)-[1,4′-bipiperidin]-4-yl)-2-(4-phenoxyphenyl)-4,5,6,7-tetrahydropyrazolo[1,5-a]pyrimidine-3-carboxamide], for which the IC50 in assay [1] and in assay [2] was 1 to 10 µM in each case. In assay [3], this compound displayed a Dmax greater than 90%. This compound displayed a DC50 in assay [3] of 0.01 to 0.05 µM.
